Measurements: patent US20190231718A1, “TREATMENT OF BREAST CANCER” (Duke University, priority 2016, published 2019)
Numbering of substitutions follows the chain as printed. Read-outs that look alike come from different tables or passages of the source. Each block holds one compound with its values, some of them ahead of it.

How the values were obtained:
[1] = biological target: T1, Y537N mutant receptor (ERα LBD mutant) (Homo sapiens, UniProt P03372, Y537N); test: ERE-luciferase reporter gene assay, ERα Y537N, SKBR3 cells; format: cell-based
T1 construct: expressed in transfected cells; host or cells: Caov2 ovarian carcinoma cells; SKBR3 breast adenocarcinoma cells
T1 sequence (P03372 1-595 Y537N): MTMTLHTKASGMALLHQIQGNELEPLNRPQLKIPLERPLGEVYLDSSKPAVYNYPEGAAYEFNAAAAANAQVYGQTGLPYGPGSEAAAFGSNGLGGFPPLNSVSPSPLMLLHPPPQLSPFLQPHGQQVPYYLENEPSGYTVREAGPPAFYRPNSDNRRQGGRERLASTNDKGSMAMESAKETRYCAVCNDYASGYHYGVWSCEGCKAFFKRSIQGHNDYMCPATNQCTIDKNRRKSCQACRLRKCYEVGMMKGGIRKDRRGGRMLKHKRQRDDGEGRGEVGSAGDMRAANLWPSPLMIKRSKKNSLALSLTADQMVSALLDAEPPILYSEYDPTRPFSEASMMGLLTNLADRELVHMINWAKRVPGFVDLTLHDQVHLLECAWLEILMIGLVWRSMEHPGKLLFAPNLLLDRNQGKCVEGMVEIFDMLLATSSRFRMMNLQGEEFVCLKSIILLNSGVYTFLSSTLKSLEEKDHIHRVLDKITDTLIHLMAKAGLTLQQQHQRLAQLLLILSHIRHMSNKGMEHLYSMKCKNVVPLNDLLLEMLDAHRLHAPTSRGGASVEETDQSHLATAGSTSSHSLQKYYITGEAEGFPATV
Experimental: (§1) ExSite mutagenesis was performed using the corresponding primers as summarized in Table 1 below on a pENTR2B ERα WT construct using Pfu ultra taq polymerase. The primers were PNK phosphorylated. Following PCR amplification, the products were digested with DpnI at 37° C. for 1 hr, followed by overnight ligation at 16° C. Ligated products were transformed into DH5α bacterial cells and grown on kanamycin resistant plates. The pENTR clones were verified by sequencing and then swapped into the pcDNA-DEST vector using the Gateway system (Invitrogen) for expression analysis.
(§2) Caov2 ovarian carcinoma cells were grown in RPMI-1640 media (Gibco) supplemented with 8% Fetal Bovine Serum (FBS), Sodium Pyruvate (NaPyr) and non-essential amino acids (NEAA) and passaged every 2-3 days. SKBR3 breast adenocarcinoma cells were grown in DMEM media (Gibco) supplemented with 8% Fetal Bovine Serum (FBS), Sodium Pyruvate (NaPyr) and non-essential amino acids (NEAA) and passaged every 2-3 days. […]
(§3) Caov2 cells were co-transfected with the 7X-TK-ERE-TATA luciferase reporter gene (Nagel et al., Endocrinology 142(11): 4721-4728 (2001)) and expression constructs for either wild-type or mutant receptors using Fugene transfection reagent (Promega). […] Following 24 hours of treatment, cells were lysed and the luciferase and β-gal assays were performed as described previously (Norris et al., J Biol Chem 270(39): 22777-22782 (1995)) and the plates were read on the Fusion α-FP HT plate reader (PerkinElmer Life Sciences).
(§4) See Jeselsohn et al., Nature Reviews Clinical Oncology 12(10): 573-583 (2015); Jeselsohn et al., Clinical Cancer Research 20(7): 1757-1767 (2014); Robinson et al., Nature Genetics 45(12): 1446-1451(2013); Thomas and Gustafsson, Trends in Endocrinology and Metabolism 26(9): 467-476 (2015); and Toy et al., Nature Genetics 45(12): 1439-1445 (2013). The activity of these mutants was evaluated in a reconstituted estrogen response element (ERE)-luciferase reporter assay in Caov2 ovarian carcinoma cells and SKBR3 breast adenocarcinoma cells. […]

[2] = biological target: T2, ESR1 wild type receptor (ERα WT) (Homo sapiens, UniProt P03372); test: ERE-luciferase reporter gene assay, wild-type ERα, Caov2 cells; format: cell-based
T2 construct: expressed in transfected cells; host or cells: Caov2 ovarian carcinoma cells; SKBR3 breast adenocarcinoma cells
T2 sequence (P03372 1-595): T1 sequence (P03372 1-595 Y537N) with N537Y
Experimental: as §1, §2, §3, §4

[3] = biological target: T3, Y537C mutant receptor (ERα LBD mutant) (Homo sapiens, UniProt P03372, Y537C); test: ERE-luciferase reporter gene assay, ERα Y537C, Caov2 cells; format: cell-based
T3 construct: expressed in transfected cells; host or cells: Caov2 ovarian carcinoma cells; SKBR3 breast adenocarcinoma cells
T3 sequence (P03372 1-595 Y537C): T1 sequence (P03372 1-595 Y537N) with N537C
Experimental: as §1, §2, §3, §4

[4] = biological target: T1, Y537N mutant receptor (ERα LBD mutant); test: ERE-luciferase reporter gene assay, ERα Y537N, Caov2 cells; format: cell-based
Experimental: as §1, §2, §3, §4

[5] = Reported Cmax in blood at approved doses; format: in vivo
Source text: See Maximov et al., Current Clinical Pharmacology 8(2): 135-155 (2013) and McDonnell et al., Journal of Medicinal Chemistry 58(12): 4883-4887 (2015). The transcriptional IC90 values of ER modulators evaluated were compared to the Cmax of these compounds in blood at approved doses. See Highlights of Prescribing Information: Evista, 2007; Highlights of Prescribing Information: Faslodex, 2012; Nolvadex, 2006; and Summary of Product Characteristics: Conbriza 2009.

[6] = in blood at approved doses: ICI 500 mg, 4OHT 20 mg, raloxifene 60 mg, bazedoxifene 20 mg; cited from earlier work
[7] = biological target: T2, ESR1 wild type receptor (ERα WT); test: ERE-luciferase reporter gene assay, wild-type ERα, SKBR3 cells; format: cell-based
Experimental: as §1, §2, §3, §4

[8] = biological target: T3, Y537C mutant receptor (ERα LBD mutant); test: ERE-luciferase reporter gene assay, ERα Y537C, SKBR3 cells; format: cell-based
Experimental: as §1, §2, §3, §4

[9] = human, blood, reported Cmax converted to molar, same approved doses, read-out: Converted (M) Cmax

Compound: 4-hydroxytamoxifen [4OHT]
- IC90 [1]: 130 nM
- SKBR3 Ratio Cmax/IC90 [1]: 0.85
- inhibition of receptor transcriptional activity (in words) [1]: inhibits the Y537N mutant receptor activity in a dose-response manner
- Caov2 Ratio Cmax/IC90 [2]: 119.01
- IC90 [2]: 0.924 nM
- inhibition of receptor transcriptional activity (in words) [2]: inhibits activity of the ESR1 wild type receptor
- Caov2 Ratio Cmax/IC90 [3]: 13.24
- IC90 [3]: 8.31 nM
- inhibition of receptor transcriptional activity (in words) [3]: inhibits the Y537C mutant receptor activity in a dose-response manner
- Caov2 Ratio Cmax/IC90 [4]: 11.6
- IC90 [4]: 9.45 nM
- inhibition of receptor transcriptional activity (in words) [4]: inhibits the Y537N mutant receptor activity in a dose-response manner
- Cmax ([5]; in vivo): 1.1e-07 M
- Reported Cmax [6]: 40 ng/mL
- IC90 [7]: 3.2 nM
- SKBR3 Ratio Cmax/IC90 [7]: 34.38
- inhibition of receptor transcriptional activity (in words) [7]: inhibits the ESR1 wild type receptor activity
- IC90 [8]: 59 nM
- SKBR3 Ratio Cmax/IC90 [8]: 1.86
- inhibition of receptor transcriptional activity (in words) [8]: inhibits the Y537C mutant receptor activity in a dose-response manner

- Cmax [5, 9]: 2.87e-09 M
Compound: O=C(c1ccc(OCCN2CCCCC2)cc1)c1c(-c2ccc(O)cc2)sc2cc(O)ccc12 [Raloxifene, raloxifene]
- Reported Cmax [6]: 1.36 ng/mL

- Cmax ([5]; human, in vivo): 4.6e-08 M
Compound: C[C@]12CC[C@@H]3c4ccc(O)cc4C[C@@H](CCCCCCCCC[S+]([O-])CCCC(F)(F)C(F)(F)F)[C@H]3[C@@H]1CC[C@@H]2O (some centres unmarked) [ICI, fulvestrant]
- Reported Cmax [6]: 28 ng/mL

- Cmax [5, 9]: 7.29e-09 M
Compound: Cc1c(-c2ccc(O)cc2)n(Cc2ccc(OCCN3CCCCCC3)cc2)c2ccc(O)cc12 [Bazedoxifene, bazedoxifene]
- Reported Cmax [6]: 6.2 ng/mL
